The results in this text go back to paper PMC2853259 (Analytical biochemistry, 2010).

The structures appear in SMILES notation.

Usually IC50 stands for the point on the concentration scale where inhibition reaches its midpoint. A high value points to lower potency.

This assay deals with Paraoxonase 1 (PON1) (Homo sapiens, UniProt P27169). It is filed as cell-based.
Chain of Paraoxonase 1 (PON1) (P27169 2-355): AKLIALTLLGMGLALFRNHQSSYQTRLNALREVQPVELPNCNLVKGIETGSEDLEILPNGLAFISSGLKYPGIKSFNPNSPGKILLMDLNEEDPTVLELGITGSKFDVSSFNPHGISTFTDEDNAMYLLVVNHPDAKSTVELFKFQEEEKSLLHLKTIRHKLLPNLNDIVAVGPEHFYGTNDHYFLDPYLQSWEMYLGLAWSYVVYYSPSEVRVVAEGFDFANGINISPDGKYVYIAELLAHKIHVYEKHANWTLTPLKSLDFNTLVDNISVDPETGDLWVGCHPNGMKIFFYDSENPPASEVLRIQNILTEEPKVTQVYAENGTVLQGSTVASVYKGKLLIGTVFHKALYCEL

`Oc1ccc2ccccc2n1` [2HQ, 2-hydroxyquinoline] gave an IC50 of 5.4 ± 3.6 µM.
